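Step 1: Grow cells in 96-well plates. Step 2: Expose to compound for 48 hours at 5 concentrations. Step 3: Interpolate endpoints linearly; if unreached, use highest concentration. GI50 = concentration required for 50% inhibition of growth. TGI is the concentration that stops growth completely.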
Tests used:
Assay in all cases: growth of human tumour cells (NCI), 48 h
[1] = system: SK-MEL-28 melanoma
[2] = system: TK-10 renal
[3] = system: SW-620 colon
[4] = system: HOP-62 NSCLC
[5] = system: SK-OV-3 ovarian
[6] = system: HL-60(TB) leukemia
[7] = system: 786-0 renal
[8] = system: SF-268 CNS
[9] = system: U251 CNS
[10] = system: HS 578T breast

CC1(C)CCC(Sc2ccccc2)O1 (centres undefined)
TGI [1]: > 100 µM | TGI [2]: > 100 µM | TGI [3]: > 100 µM | TGI [4]: > 100 µM | TGI [5]: > 100 µM | TGI [6]: > 100 µM | TGI [7]: > 100 µM | TGI [8]: > 100 µM | TGI [9]: > 100 µM

Cc1ccc(NC(=O)CCCC(=O)CC(=O)c2ccc(Br)cc2)cc1
TGI [1]: > 100 µM | TGI [2]: > 100 µM | TGI [3]: > 100 µM | TGI [4]: > 100 µM | TGI [5]: > 100 µM | TGI [7]: > 100 µM | TGI [8]: > 100 µM | TGI [9]: > 100 µM

C=C1C[C@H]2C=Nc3cc(OCCCOc4cc5c(cc4OC)C(=O)N4CC(=C)C[C@H]4C=N5)c(OC)cc3C(=O)N2C1
TGI [1]: 0.0436 µM | TGI [2]: < 0.177 µM | GI50 [3]: 0.0144 µM | TGI [3]: > 85.2 µM | TGI [4]: < 0.215 µM | GI50 [5]: < 0.0147 µM | TGI [5]: 33.1 µM | GI50 [6]: 0.000245 µM | GI50 [7]: 0.00125 µM | TGI [9]: 3.3 µM | TGI [10]: > 100 µM

COc1ccc2c(c1)OC(N)=C(C#N)C2c1cc(OC)c(OC)c(OC)c1 (centres undefined)
GI50 [1]: 0.0781 µM | TGI [1]: > 100 µM | GI50 [3]: 0.038 µM | TGI [3]: > 100 µM | GI50 [4]: 0.0548 µM | TGI [4]: 33.2 µM | GI50 [5]: 0.0304 µM | TGI [5]: 1.11 µM | GI50 [6]: 0.0256 µM | TGI [6]: 0.068 µM | GI50 [7]: 0.0538 µM | TGI [7]: > 100 µM | GI50 [8]: 0.0642 µM | TGI [8]: > 100 µM | GI50 [9]: 0.0329 µM | TGI [9]: 1.48 µM | GI50 [10]: 0.0408 µM | TGI [10]: > 100 µM

COC(=O)CCSC(=O)Nc1ccc(N=Nc2ccccc2)cc1
TGI [1]: > 100 µM | TGI [2]: > 100 µM | TGI [3]: > 100 µM | TGI [4]: > 100 µM | TGI [5]: > 100 µM | TGI [7]: > 100 µM | TGI [8]: > 100 µM | TGI [9]: > 100 µM

Cc1ccc(C(=O)CC2(O)C(=O)Nc3c(C)cc(Cl)cc32)cc1 (centres undefined)
TGI [1]: > 100 µM | TGI [2]: > 100 µM | TGI [3]: > 100 µM | TGI [4]: > 100 µM | TGI [5]: > 100 µM | TGI [6]: > 100 µM | TGI [7]: > 100 µM | TGI [8]: > 100 µM | TGI [9]: > 100 µM

Cn1c(CBr)nc2c1C(=O)c1nc(CBr)[nH]c(=O)c1C2=O
TGI [1]: > 100 µM | TGI [2]: > 100 µM | TGI [3]: > 100 µM | TGI [5]: > 100 µM | TGI [7]: > 100 µM | TGI [8]: > 100 µM | TGI [9]: > 100 µM

COc1cc[c]([Sn]([c]2ccc(OC)cc2)([c]2ccc(OC)cc2)[c]2ccc(OC)cc2)cc1
GI50 [2]: 17.9 µM | TGI [2]: 51.1 µM | GI50 [3]: 18.9 µM | TGI [3]: 55.9 µM | GI50 [4]: 81.8 µM | TGI [4]: > 100 µM | GI50 [5]: 96.5 µM | TGI [5]: > 100 µM | GI50 [7]: 18.1 µM | TGI [7]: 43.5 µM | GI50 [8]: 29.7 µM | TGI [8]: > 100 µM | GI50 [9]: 20.8 µM | TGI [9]: 72.2 µM

CCCNC(=O)Nc1c([N+](=O)[O-])cc(C(F)(F)F)cc1[N+](=O)[O-]
TGI [1]: > 100 µM | TGI [2]: > 100 µM | TGI [3]: > 100 µM | TGI [4]: > 100 µM | TGI [5]: > 100 µM | TGI [6]: 82.7 µM | TGI [7]: > 100 µM | TGI [8]: > 100 µM | TGI [9]: > 100 µM

Nc1nnc2c(-c3ccccc3)[nH]nc2n1
TGI [1]: > 100 µM | TGI [2]: > 100 µM | TGI [3]: > 100 µM | TGI [6]: > 100 µM | TGI [7]: > 100 µM | TGI [8]: 58.7 µM

— PubChem BioAssay (NCI)
